Data reported in ChEMBL document CHEMBL1268906, “Discovery of a potent and selective Bcl-2 inhibitor using SAR by NMR” (Bioorg Med Chem Lett, 2010).

Tests used:
[1] = molecular target: T1, Apoptosis regulator Bcl-2 (Homo sapiens, UniProt P10415); assay: Inhibition of Bcl-2 by fluorescence polarization assay
[2] = molecular target: T1, Apoptosis regulator Bcl-2; assay: Binding affinity to Bcl-2 by NMR titration assay
[3] = molecular target: T1, Apoptosis regulator Bcl-2; assay: Binding affinity to Bcl-2 by NMR titration assay in presence of 500 uM 1,1-bis(4-chlorophenyl)-3-(dimethylamino)propan-1-ol
[4] = Selectivity ratio of Kd for Bcl-XL to Kd for Bcl-2
Bcl-2-like protein 1 = Bcl-2-like protein 1 (Homo sapiens, UniProt Q07817); assay: Binding affinity to Bcl-XL by NMR titration assay
Sequence of Bcl-2-like protein 1 (Q07817 whole entry): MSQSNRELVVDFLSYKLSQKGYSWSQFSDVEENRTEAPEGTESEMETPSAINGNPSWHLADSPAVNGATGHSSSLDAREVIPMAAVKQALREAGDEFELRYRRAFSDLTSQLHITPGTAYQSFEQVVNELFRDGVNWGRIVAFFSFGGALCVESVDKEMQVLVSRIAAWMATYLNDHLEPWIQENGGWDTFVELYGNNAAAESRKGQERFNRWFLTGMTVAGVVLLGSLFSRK

T1 sequence (P10415 whole entry): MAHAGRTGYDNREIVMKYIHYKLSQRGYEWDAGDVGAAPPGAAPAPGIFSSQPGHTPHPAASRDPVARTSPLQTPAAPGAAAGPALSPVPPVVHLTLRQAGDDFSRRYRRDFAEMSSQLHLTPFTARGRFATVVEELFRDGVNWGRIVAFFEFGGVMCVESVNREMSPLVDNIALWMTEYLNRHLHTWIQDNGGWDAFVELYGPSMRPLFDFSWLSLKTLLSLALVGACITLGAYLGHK

| Ki [1] [µM] | Kd [2] [µM] | Structure (SMILES) | other results |
| --- | --- | --- | --- |
| 3.4 |  | CN(C)CCCC(O)(c1ccccc1)c1cccc(CCOc2ccc(-c3ccc(C(=O)O)cc3)cc2)c1 (stereo not drawn) |  |
|  | 400 | O=C(O)c1ccc(-c2ccc(F)cc2)cc1 | Kd [3]: 430 µM |
| 5 |  | CN(C)CCCC(O)(c1ccccc1)c1cccc(OCCc2cccc(-c3ccc(C(=O)O)cc3)c2)c1 (stereo not drawn) |  |
| 0.46 |  | CC(O)(c1ccc(Cl)cc1)c1ccc(Cl)c(CCOc2ccc(-c3ccc(C(=O)O)cc3)cc2)c1 (stereo not drawn) |  |
| 0.22 |  | O=C(O)c1ccc(-c2ccc(OCCc3cc(C(O)(CCN4CCOCC4)c4ccc(Cl)cc4)ccc3Cl)cc2)cc1 (stereo not drawn) |  |
| > 1 |  | CN(C)CCCC(O)(c1ccccc1)c1ccc(OCCOc2ccc(-c3ccc(C(=O)O)cc3)cc2)cc1 (stereo not drawn) |  |
|  | 100 | CCc1cccc(-c2ccc(C(=O)O)cc2)c1 | Kd [3]: 20 µM |
| 12 |  | CN(C)CCCC(O)(c1ccccc1)c1ccc(OCCc2ccc(-c3ccc(C(=O)O)cc3)cc2)cc1 (stereo not drawn) |  |
| 8 |  | CN(C)CCCC(O)(c1ccccc1)c1ccc(OCCc2cccc(-c3ccc(C(=O)O)cc3)c2)cc1 (stereo not drawn) |  |
|  | 300 | CCc1ccc(-c2ccc(C(=O)O)cc2)cc1 | Kd [3]: > 1000 µM |
| 83 |  | CN(C)CCCC(O)(c1ccccc1)c1ccc(OCc2ccc(-c3ccc(C(=O)O)cc3)cc2)cc1 (stereo not drawn) |  |
| 5.2 |  | CN(C)CCCC(O)(c1ccccc1)c1cccc(OCc2ccc(-c3ccc(C(=O)O)cc3)cc2)c1 (stereo not drawn) |  |
| 0.04 |  | CC(C)(C)c1ccc(C(O)(CCN2CCCC2)c2ccc(Cl)c(CCOc3ccc(-c4ccc(C(=O)O)cc4)cc3)c2)cc1 (stereo not drawn) | Selectivity ratio [4]: 1000 |
| 4.6 |  | CN(C)CCCC(O)(c1ccccc1)c1cccc(OCCc2ccc(-c3ccc(C(=O)O)cc3)cc2)c1 (stereo not drawn) |  |
|  | 20 | CN(C)CCCC(O)(c1ccc(Cl)cc1)c1ccc(Cl)cc1 | Kd (Bcl-2-like protein 1): 450 µM; Selectivity ratio [4]: 20 |
|  | 60 | CN1CCN(C(c2ccccc2)c2ccc(Cl)cc2)CC1 (stereo not drawn) [CHLORCYCLIZINE] | Kd (Bcl-2-like protein 1): 700 µM |
| > 1 |  | CN(C)CCCC(O)(c1ccccc1)c1cccc(OCCOc2ccc(-c3ccc(C(=O)O)cc3)cc2)c1 (stereo not drawn) |  |
| 0.2 |  | O=C(O)c1ccc(-c2ccc(OCCc3cc(C(O)(CCN4CCOCC4)c4ccc(Br)cc4)ccc3Cl)cc2)cc1 (stereo not drawn) |  |
|  | 80 | CN(C)CCC[C@@](O)(c1ccccc1)c1ccc(Cl)cc1 | Kd (Bcl-2-like protein 1): 500 µM |
| 0.11 |  | CC(C)(C)c1ccc(C(O)(CCN2CCOCC2)c2ccc(Cl)c(CCOc3ccc(-c4ccc(C(=O)O)cc4)cc3)c2)cc1 (stereo not drawn) |  |
|  | 200 | CN(C)CCCC(O)(c1ccccc1)c1ccccc1 | Kd (Bcl-2-like protein 1): 5000 µM |
| 20 |  | CN(C)CCCC(O)(c1ccccc1)c1cccc(OCc2cccc(-c3ccc(C(=O)O)cc3)c2)c1 (stereo not drawn) |  |
| 5.8 |  | CN(C)CCCC(O)(c1ccccc1)c1ccc(OCc2cccc(-c3ccc(C(=O)O)cc3)c2)cc1 (stereo not drawn) |  |

| Structure (SMILES) | Ki [1] [µM] | Kd [2] [µM] | other results |
| --- | --- | --- | --- |
| NC[C@](O)(c1ccccc1)c1ccc(F)cc1Cl |  | 250 |  |
